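Compound exposure: 48 hours, 5 concentrations, 96-well plates. TGI: concentration producing complete growth inhibition.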
How the values were obtained:
Experiment in all cases: NCI-60 cell line screen, 48 h
MDA-N = test system: MDA-N
HS 578T breast = test system: HS 578T breast
UACC-62 melanoma = test system: UACC-62 melanoma
NCI/ADR-RES ovarian = test system: NCI/ADR-RES ovarian
NCI-H226 lung = test system: NCI-H226 lung
UO-31 renal = test system: UO-31 renal
MOLT-4 leukemia = test system: MOLT-4 leukemia
SR leukemia = test system: SR leukemia
K-562 leukemia = test system: K-562 leukemia
MCF7 breast = test system: MCF7 breast
786-0 renal = test system: 786-0 renal
SNB-19 CNS = test system: SNB-19 CNS
HL-60(TB) leukemia = test system: HL-60(TB) leukemia
SK-MEL-28 melanoma = test system: SK-MEL-28 melanoma
OVCAR-4 ovarian = test system: OVCAR-4 ovarian
NCI-H23 lung = test system: NCI-H23 lung
HOP-92 NSCLC = test system: HOP-92 NSCLC
HCT-116 colon = test system: HCT-116 colon
SF-268 CNS = test system: SF-268 CNS
OVCAR-5 ovarian = test system: OVCAR-5 ovarian
ACHN renal = test system: ACHN renal
EKVX NSCLC = test system: EKVX NSCLC
NCI-H522 lung = test system: NCI-H522 lung
U251 CNS = test system: U251 CNS
HCC-2998 colon = test system: HCC-2998 colon
MALME-3M melanoma = test system: MALME-3M melanoma
A498 renal = test system: A498 renal
HCT-15 colon = test system: HCT-15 colon
UACC-257 melanoma = test system: UACC-257 melanoma
SW-620 colon = test system: SW-620 colon
MDA-MB-435 = test system: MDA-MB-435
RXF 393 renal = test system: RXF 393 renal
M14 melanoma = test system: M14 melanoma
LOX IMVI melanoma = test system: LOX IMVI melanoma
OVCAR-3 ovarian = test system: OVCAR-3 ovarian
HOP-62 NSCLC = test system: HOP-62 NSCLC
NCI-H460 lung = test system: NCI-H460 lung
PC-3 prostate = test system: PC-3 prostate
SN12C renal = test system: SN12C renal
BT-549 breast = test system: BT-549 breast
IGROV1 ovarian = test system: IGROV1 ovarian
CAKI-1 renal = test system: CAKI-1 renal
T-47D breast = test system: T-47D breast
RPMI-8226 leukemia = test system: RPMI-8226 leukemia
HT29 colon = test system: HT29 colon
SNB-75 CNS = test system: SNB-75 CNS
SK-OV-3 ovarian = test system: SK-OV-3 ovarian
COLO 205 colon = test system: COLO 205 colon
OVCAR-8 ovarian = test system: OVCAR-8 ovarian
CCRF-CEM leukemia = test system: CCRF-CEM leukemia
DU-145 prostate = test system: DU-145 prostate
SK-MEL-5 melanoma = test system: SK-MEL-5 melanoma
SK-MEL-2 melanoma = test system: SK-MEL-2 melanoma
A549 NSCLC = test system: A549 NSCLC
KM12 colon = test system: KM12 colon
MDA-MB-231 breast = test system: MDA-MB-231 breast
SF-295 CNS = test system: SF-295 CNS
TK-10 renal = test system: TK-10 renal
SF-539 CNS = test system: SF-539 CNS

Compound: CC1(C)CC[C@]2(C(=O)O)CC[C@]3(C)C(=CC[C@@H]4[C@@]5(C)CC[C@H](OC6OC(C(=O)O)C(O)C(O)C6O)C(C)(C)[C@@H]5CC[C@]43C)[C@@H]2C1 (stereo partly drawn)
- TGI (MDA-N): 33.8 µM
- TGI (HS 578T breast): 44 µM
- TGI (UACC-62 melanoma): 33.4 µM
- TGI (NCI/ADR-RES ovarian): 37.2 µM
- TGI (NCI-H226 lung): 39.5 µM
- TGI (UO-31 renal): 36.3 µM
- TGI (MOLT-4 leukemia): 41.3 µM
- TGI (SR leukemia): 41.1 µM
- TGI (K-562 leukemia): 37.5 µM
- TGI (MCF7 breast): 40.8 µM
- TGI (786-0 renal): 33.6 µM
- TGI (SNB-19 CNS): 48.7 µM
- TGI (HL-60(TB) leukemia): 35.5 µM
- TGI (SK-MEL-28 melanoma): 39.7 µM
- TGI (OVCAR-4 ovarian): 33.9 µM
- TGI (NCI-H23 lung): 37.1 µM
- TGI (HOP-92 NSCLC): 25.9 µM
- TGI (HCT-116 colon): 30.4 µM
- TGI (SF-268 CNS): 38.6 µM
- TGI (OVCAR-5 ovarian): 29.7 µM
- TGI (ACHN renal): 29.6 µM
- TGI (EKVX NSCLC): 64.8 µM
- TGI (NCI-H522 lung): 35.3 µM
- TGI (U251 CNS): 28 µM
- TGI (HCC-2998 colon): 38.2 µM
- TGI (MALME-3M melanoma): 34.2 µM
- TGI (A498 renal): 35.7 µM
- TGI (HCT-15 colon): 30.6 µM
- TGI (UACC-257 melanoma): 30.8 µM
- TGI (SW-620 colon): 31.8 µM
- TGI (MDA-MB-435): 38.5 µM
- TGI (RXF 393 renal): 31.1 µM
- TGI (M14 melanoma): 30.6 µM
- TGI (LOX IMVI melanoma): 35.8 µM
- TGI (OVCAR-3 ovarian): 28 µM
- TGI (HOP-62 NSCLC): 33.9 µM
- TGI (NCI-H460 lung): 37.2 µM
- TGI (PC-3 prostate): 33 µM
- TGI (SN12C renal): 30.8 µM
- TGI (BT-549 breast): 40.5 µM
- TGI (IGROV1 ovarian): 35 µM
- TGI (CAKI-1 renal): 33.7 µM
- TGI (T-47D breast): 36.3 µM
- TGI (RPMI-8226 leukemia): 44.4 µM
- TGI (HT29 colon): 28.4 µM
- TGI (SNB-75 CNS): 35.1 µM
- TGI (SK-OV-3 ovarian): 41.6 µM
- TGI (COLO 205 colon): 30.8 µM
- TGI (OVCAR-8 ovarian): 44.9 µM
- TGI (CCRF-CEM leukemia): 42.8 µM
- TGI (DU-145 prostate): 31.4 µM
- TGI (SK-MEL-5 melanoma): 33.2 µM
- TGI (SK-MEL-2 melanoma): 29.8 µM
- TGI (A549 NSCLC): 39.3 µM
- TGI (KM12 colon): 34.7 µM
- TGI (MDA-MB-231 breast): 33.5 µM
- TGI (SF-295 CNS): 28.7 µM

Compound: CCOC(=O)C(C)c1nc2cc(N3CCOCC3)c(F)cc2[nH]c1=O (stereo not drawn)
- TGI (MDA-N): > 100 µM
- TGI (HS 578T breast): > 100 µM
- TGI (UACC-62 melanoma): > 100 µM
- TGI (NCI/ADR-RES ovarian): > 100 µM
- TGI (NCI-H226 lung): > 100 µM
- TGI (UO-31 renal): > 100 µM
- TGI (MOLT-4 leukemia): > 100 µM
- TGI (SR leukemia): > 100 µM
- TGI (K-562 leukemia): > 100 µM
- TGI (MCF7 breast): > 100 µM
- TGI (786-0 renal): > 100 µM
- TGI (SNB-19 CNS): > 100 µM
- TGI (HL-60(TB) leukemia): > 100 µM
- TGI (SK-MEL-28 melanoma): > 100 µM
- TGI (OVCAR-4 ovarian): > 100 µM
- TGI (NCI-H23 lung): > 100 µM
- TGI (HOP-92 NSCLC): > 100 µM
- TGI (HCT-116 colon): > 100 µM
- TGI (SF-268 CNS): > 100 µM
- TGI (OVCAR-5 ovarian): > 100 µM
- TGI (ACHN renal): > 100 µM
- TGI (EKVX NSCLC): > 100 µM
- TGI (NCI-H522 lung): > 100 µM
- TGI (U251 CNS): > 100 µM
- TGI (HCC-2998 colon): > 100 µM
- TGI (MALME-3M melanoma): > 100 µM
- TGI (A498 renal): > 100 µM
- TGI (HCT-15 colon): > 100 µM
- TGI (UACC-257 melanoma): > 100 µM
- TGI (SW-620 colon): > 100 µM
- TGI (MDA-MB-435): > 100 µM
- TGI (RXF 393 renal): > 100 µM
- TGI (M14 melanoma): > 100 µM
- TGI (OVCAR-3 ovarian): > 100 µM
- TGI (HOP-62 NSCLC): > 100 µM
- TGI (NCI-H460 lung): > 100 µM
- TGI (PC-3 prostate): > 100 µM
- TGI (SN12C renal): > 100 µM
- TGI (BT-549 breast): > 100 µM
- TGI (IGROV1 ovarian): > 100 µM
- TGI (CAKI-1 renal): > 100 µM
- TGI (T-47D breast): > 100 µM
- TGI (RPMI-8226 leukemia): > 100 µM
- TGI (HT29 colon): > 100 µM
- TGI (SNB-75 CNS): > 100 µM
- TGI (SK-OV-3 ovarian): > 100 µM
- TGI (COLO 205 colon): > 100 µM
- TGI (OVCAR-8 ovarian): > 100 µM
- TGI (CCRF-CEM leukemia): > 100 µM
- TGI (DU-145 prostate): > 100 µM
- TGI (SK-MEL-5 melanoma): > 100 µM
- TGI (SK-MEL-2 melanoma): > 100 µM
- TGI (A549 NSCLC): > 100 µM
- TGI (KM12 colon): > 100 µM
- TGI (TK-10 renal): > 100 µM
- TGI (MDA-MB-231 breast): > 100 µM
- TGI (SF-539 CNS): > 100 µM
- TGI (SF-295 CNS): > 100 µM

Compound: CC1(C)[C@@H]2CC[C@@]1(C)C1(SS1=O)C21Cc2ccccc2C1 (stereo partly drawn)
- TGI (MDA-N): 35.5 µM
- TGI (HS 578T breast): > 100 µM
- TGI (UACC-62 melanoma): 70 µM
- TGI (NCI/ADR-RES ovarian): 67.5 µM
- TGI (NCI-H226 lung): > 100 µM
- TGI (UO-31 renal): 35.8 µM
- TGI (MOLT-4 leukemia): 58.4 µM
- TGI (SR leukemia): 54.5 µM
- TGI (K-562 leukemia): 51.6 µM
- TGI (MCF7 breast): 63.9 µM
- TGI (786-0 renal): 31.3 µM
- TGI (SNB-19 CNS): > 100 µM
- TGI (HL-60(TB) leukemia): 42.5 µM
- TGI (SK-MEL-28 melanoma): 54 µM
- TGI (OVCAR-4 ovarian): 32 µM
- TGI (NCI-H23 lung): > 100 µM
- TGI (HOP-92 NSCLC): 67.5 µM
- TGI (HCT-116 colon): 28.5 µM
- TGI (SF-268 CNS): > 100 µM
- TGI (OVCAR-5 ovarian): 45.7 µM
- TGI (ACHN renal): 45.5 µM
- TGI (EKVX NSCLC): 73 µM
- TGI (NCI-H522 lung): 30.8 µM
- TGI (U251 CNS): 84.5 µM
- TGI (HCC-2998 colon): 36.9 µM
- TGI (MALME-3M melanoma): > 100 µM
- TGI (A498 renal): 97.3 µM
- TGI (HCT-15 colon): 63.7 µM
- TGI (UACC-257 melanoma): 55.9 µM
- TGI (SW-620 colon): 36.1 µM
- TGI (MDA-MB-435): 99 µM
- TGI (RXF 393 renal): 38.9 µM
- TGI (M14 melanoma): > 100 µM
- TGI (LOX IMVI melanoma): 28.5 µM
- TGI (OVCAR-3 ovarian): > 100 µM
- TGI (HOP-62 NSCLC): > 100 µM
- TGI (NCI-H460 lung): 52.2 µM
- TGI (PC-3 prostate): 41.7 µM
- TGI (SN12C renal): 35.8 µM
- TGI (BT-549 breast): 85.9 µM
- TGI (IGROV1 ovarian): 37.2 µM
- TGI (CAKI-1 renal): 45.6 µM
- TGI (T-47D breast): 70.3 µM
- TGI (RPMI-8226 leukemia): 50.5 µM
- TGI (HT29 colon): 40.9 µM
- TGI (SNB-75 CNS): > 100 µM
- TGI (SK-OV-3 ovarian): > 100 µM
- TGI (COLO 205 colon): 99 µM
- TGI (OVCAR-8 ovarian): 31 µM
- TGI (CCRF-CEM leukemia): 36.3 µM
- TGI (DU-145 prostate): 45.4 µM
- TGI (SK-MEL-2 melanoma): 60.5 µM
- TGI (A549 NSCLC): > 100 µM
- TGI (KM12 colon): > 100 µM
- TGI (TK-10 renal): 38.7 µM
- TGI (MDA-MB-231 breast): 34.9 µM
- TGI (SF-539 CNS): 72.3 µM
- TGI (SF-295 CNS): > 100 µM

— PubChem BioAssay (NCI)
